Measurements published in PMC13192270, “RhlR quorum-sensing receptor ligand sensitivity regulates the differential expression of phenazine genes in Pseudomonas aeruginosa” (Journal of Bacteriology, 2026).

Molecular target: T1, WT RhlR in ΔrhlI strain (Pseudomonas aeruginosa, UniProt P54292)
T1 construct: Comparison of ChIP enrichment from the ΔrhlI and ΔrhlI RhlR T58L strains; endogenous in cells; host or cells: P. aeruginosa UCBPP-PA14 ΔrhlI
T1 sequence (P54292 1-241): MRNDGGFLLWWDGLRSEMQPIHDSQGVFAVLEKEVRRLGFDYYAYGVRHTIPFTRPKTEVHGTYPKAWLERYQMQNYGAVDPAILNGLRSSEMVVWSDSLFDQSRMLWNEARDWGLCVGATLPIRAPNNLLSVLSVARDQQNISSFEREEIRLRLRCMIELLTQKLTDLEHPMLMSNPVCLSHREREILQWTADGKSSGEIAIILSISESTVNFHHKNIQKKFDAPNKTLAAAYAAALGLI
Assay: ChIP-seq of RhlR-binding sites
Assay type: cell-based
Settings: 2 µM C4HSL
Experimental: P. aeruginosa strains were grown overnight, back diluted 1:100 in fresh LB media, and grown to an OD600 = 2.0. Crosslinking, lysis, and immunoprecipitation were performed as previously described ([37]).

**Q.** `CCCC(=O)N[C@H]1CCOC1=O` [C4HSL, N-butyryl-L-homoserine lactone] was tested. Which “ChIP-seq enrichment at PA14_01490 (rahU) (peak 139,733)” value did it give?
**A.** 1,797.7

**Q.** What about the “ChIP-seq enrichment at PA14_06320 (peak 560,072)” value of the same compound?
**A.** 1,705.2

**Q.** And the “ChIP-seq enrichment at PA14_10360 (peak 895,433)” value?
**A.** 1,134.9

**Q.** What about the “ChIP-seq enrichment at PA14_16100*, PA14_16110 (peak 1,372,370)” value of the same compound?
**A.** 1,180.9

**Q.** And the “ChIP-seq enrichment at PA14_18800 (peak 1,620,628)” value?
**A.** 664.1

**Q.** And the “ChIP-seq enrichment at PA14_18810 operon (peak 1,621,028)” value?
**A.** 127.1

**Q.** And the “ChIP-seq enrichment at PA14_20130, PA14_20140 (fpr) (peak 1,735,823)” value?
**A.** 258.2

**Q.** And the “ChIP-seq enrichment at PA14_21020 (azeB) operon, PA14_21030 (peak 1,816,906)” value?
**A.** 4,251.6

**Q.** And the “ChIP-seq enrichment at PA14_22090 (peak 1,921,598)” value?
**A.** 402.5

**Q.** And the “ChIP-seq enrichment at PA14_28250*, PA14_28260 (peak 2,444,398)” value?
**A.** 126.8

**Q.** What about the “ChIP-seq enrichment at PA14_29620, fhp operon (peak 2,568,048)” value of the same compound?
**A.** 2,516.7

**Q.** What about the “ChIP-seq enrichment at PA14_30570, PA14_30580 (vqsR) (peak 2,647,472)” value of the same compound?
**A.** 770.7

**Q.** What about the “ChIP-seq enrichment at PA14_30840* (peak 2,677,542)” value of the same compound?
**A.** 7,49.74

**Q.** And the “ChIP-seq enrichment at PA14_37745 operon (peak 3,364,761)” value?
**A.** 408.8

**Q.** And the “ChIP-seq enrichment at PA14_48140 operon (peak 4,285,523)” value?
**A.** 311.1

**Q.** And the “ChIP-seq enrichment at PA14_48530 operon (peak 4,313,855)” value?
**A.** 838.3

**Q.** And the “ChIP-seq enrichment at PA14_49310 (peak 4,382,169)” value?
**A.** 1,250.8

**Q.** And the “ChIP-seq enrichment at PA14_49740, PA14_49750 operon (peak 4,425,570)” value?
**A.** 1,588.8

**Q.** What about the “ChIP-seq enrichment at PA14_57970*, PA14_57980 (peak 5,159,548)” value of the same compound?
**A.** 826

**Q.** What about the “ChIP-seq enrichment at PA14_59180* (peak 5,268,881)” value of the same compound?
**A.** 381.4

**Q.** What about the “ChIP-seq enrichment at PA_48530* (peak 4,314,560)” value of the same compound?
**A.** 258.8

**Q.** And the “ChIP-seq enrichment at arcD operon (peak 6,093,032)” value?
**A.** 1,302.3

**Q.** What about the “ChIP-seq enrichment at hcnA operon, exoY (peak 3,236,436)” value of the same compound?
**A.** 2,43.83

**Q.** What about the “ChIP-seq enrichment at hsiA2 operon, hcpD (peak 3,831,541)” value of the same compound?
**A.** 1,370.2

**Q.** What about the “ChIP-seq enrichment at lasA (peak 3,600,666)” value of the same compound?
**A.** 239.4

**Q.** What about the “ChIP-seq enrichment at lasB (peak 1,387,361)” value of the same compound?
**A.** 597.9

**Q.** What about the “ChIP-seq enrichment at lecB, PA14_20620 operon (peak 1,774,336)” value of the same compound?
**A.** 16,502.8

**Q.** What about the “ChIP-seq enrichment at pa1L (peak 2,721,761)” value of the same compound?
**A.** 204.8

**Q.** And the “ChIP-seq enrichment at peak 5,414,219” value?
**A.** 519

**Q.** And the “ChIP-seq enrichment at phzA1 operon, phzM (peak 813,529)” value?
**A.** 5,438.8

**Q.** What about the “ChIP-seq enrichment at phzA2 operon (peak 3,561,969)” value of the same compound?
**A.** 575.2

**Q.** What about the “ChIP-seq enrichment at phzB1*, phzC1 (peak 812,427)” value of the same compound?
**A.** 1,614.1

**Q.** What about the “ChIP-seq enrichment at phzB2*, phzC2 (peak 3,561,157)” value of the same compound?
**A.** 214.5

**Q.** And the “ChIP-seq enrichment at phzH (peak 64,211)” value?
**A.** 1,937.1

**Q.** What about the “ChIP-seq enrichment at rhlA operon (peak 1,648,391)” value of the same compound?
**A.** 4,107.6

**Q.** What about the “ChIP-seq enrichment at rhlI (peak 1,651,804)” value of the same compound?
**A.** 562.1

**Q.** And the “ChIP-seq enrichment at rmlB operon (peak 6,082,366)” value?
**A.** 2,46.6

**Q.** And the “ChIP-seq enrichment at rpsL operon (peak 754,615)” value?
**A.** 580.9

**Q.** And the “ChIP-seq enrichment at tnpS, tnpT operon (peak 3,188,223)” value?
**A.** 365.2
